# Measured values from patent US4608365A, “Treatment of neurologic functions” (priority 1984, dated 1986).
# What was measured:
# patients given TRH = assay: Amelioration of TRH side-effects by co-medication; design: species or system human; conditions: in vivo
# Source text: In addition, all patients experiencing the various described side-effects considered those side-effects to be minor and desired further TRH treatments.
# [1] = system: tissue-cultured fetal rat lower motor neurons; assay: Trophic-like effect on tissue-cultured fetal rat lower motor neurons (cholineactyltransferase); format: cell-based; conditions: chronic
# Source text: "Transmitter-like," as used herein, includes not only direct excitatory (or facilitatory) and inhibitory actions on the lower motor neurons, but also any action on lower motor neurons or afferents thereto that results indirectly in such an effect. That excitatory TRH action, increasing patients' strength, is either directly excitatory or facilitatory and perhaps analogous to the lower motor neuron facilitation of glutamate excitation noted with TRH micropipetted into spinal cords of normal amphibia (Nicoll, J. Pharmac. Exp. Therap. 1978; 207: 817-24; Phillis et al., Can. J. Physiol. Pharmacol. 1979; 57: 887-99 and rodents, White Abstr. Soc. Neurosci 1983, 9: 714, and in other animal studies. An inhibitory transmitter-like action seems likely to underlie both the rapid-onset autorefractory phenomenon and the possibly related clinical reduction of spasticity, spasms and cramps. A tachyphalaxis or desensitization phenomenon, perhaps similar to the clinical autorefractory state, has been noted in animal lower motor neurons with larger amounts of TRH micropipetted into the spinal cord (Nicoll and Phillis, et al., supra).
compound,measurement,setting,value
CN(C)CCOC(c1ccccc1)c1ccccc1.Cn1c(=O)c2[nH]c(Cl)nc2n(C)c1=O [dimenhydrate],effect on nausea side-effect of TRH,patients given TRH,"diminishes the rare, occurring nausea side-effect"
CC(N)C(O)c1ccccc1 (stereo not drawn) [phenylpropanolamine],effect on shivering side-effect of TRH,patients given TRH,diminish the shivering side-effect
insulin,enhancement of cholineactyltransferase,[1],10 fold
